According to US8889674B2, “Piperidine and pyrrolidine derivatives having NPY Y5 receptor antagonism” (Shionogi & Co., Ltd., priority 2009, dated 2014):

Biological target: T1, mouse NPY Y5 receptor (Mus musculus, UniProt O70342)
T1 construct: expressed in transfected cells
T1 sequence (O70342 1-466): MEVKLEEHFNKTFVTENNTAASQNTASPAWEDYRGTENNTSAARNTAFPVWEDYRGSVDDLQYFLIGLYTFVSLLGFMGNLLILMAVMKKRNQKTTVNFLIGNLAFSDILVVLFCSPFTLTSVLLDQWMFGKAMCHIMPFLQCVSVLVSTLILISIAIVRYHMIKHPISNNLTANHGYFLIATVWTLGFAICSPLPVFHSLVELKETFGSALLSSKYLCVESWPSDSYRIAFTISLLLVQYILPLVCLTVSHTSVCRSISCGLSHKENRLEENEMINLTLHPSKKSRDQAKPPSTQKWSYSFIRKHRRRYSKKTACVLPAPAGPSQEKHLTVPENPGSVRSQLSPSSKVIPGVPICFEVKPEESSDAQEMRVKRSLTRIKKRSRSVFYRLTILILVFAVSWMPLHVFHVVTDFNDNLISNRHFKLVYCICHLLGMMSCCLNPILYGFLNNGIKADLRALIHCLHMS
Experiment: Affinity for NPY Y5 receptor: 125I peptide YY binding to membranes of CHO cells expressing mouse NPY Y5 receptor
Conditions: mouse NPY Y5 receptor in CHO cell membranes, 125I peptide YY 60 pM, 25° C., 2 hours
From the text: cDNA sequence encoding mouse NPY Y5 receptor (Biochem. Biophys. Acta 1328: 83-89, 1997) was cloned in the expression vector (pME18S, Takebe et al. Mol. Cell. Biol. 8, 466-472). The obtained expression vector was transfected into CHO cells as a host according to the instruction manual using Lipofectamine reagent (Trademark, Gibco BRL Co., Ltd.). The cells that stably express NPY Y5 receptor were obtained.
The membrane samples prepared from the CHO cells expressing NPY Y5 receptor, the compound of the invention and 30,000 cpm ^125I peptide YY (60 pM of final concentration: Amersham) were incubated in the assay buffer (20 mM HEPES-Hanks buffer containing 0.1% bovine serum albumin, pH 7.4) at 25° C. for 2 hours. The membrane samples were then filtered from the mixture through a glassfilter (GF/C) presoaked with 1% polyethyleneimine. After washing with 50 mM Tris-HCl buffer (pH 7.4), radioactivity retained on the filters was determined using gamma counter. Non-specific binding was determined in the presence of 200 nM of peptide YY and calculated the 50% inhibitory concentration (IC50 value) of the test compound for specific peptide YY binding (Inui, A. et al. Endocrinology 131, 2090-2096 (1992)).

Row | Structure (SMILES) | IC50 [nM]
1 | CC(=O)N1CCC[C@@H]1C(=O)N1CCC(C(=O)Nc2cccc(-c3ccccc3F)c2)CC1 [Ia-4] | 0.47
2 | CC(=O)N1CCC[C@@H]1C(=O)N1CCC(c2nc3ccc(-c4ccccc4F)cc3[nH]2)CC1 [Ia-5] | 0.28
3 | N#Cc1ccccc1C(=O)N1CCC(C(=O)Nc2cccc(-c3nccs3)c2)CC1 [Ia-54] | 0.39
4 | C[C@@H]1CC(F)(F)CN1C(=O)N1CCC(C(=O)Nc2cccc(-c3ccccc3F)c2)CC1 [Ia-18] | 1.56
5 | N#Cc1ccccc1CN1CCC(C(=O)Nc2cccc(-c3ccccc3F)c2)CC1 [Ia-99] | 0.64
6 | O=C(Nc1cccc(-c2ccccc2F)c1)C1CCN(C(=O)c2cc(Cl)ccn2)CC1 [Ia-113] | 4.28
7 | O=C(Nc1cccc(-c2ccccc2F)c1)C1CCN(C(=O)c2ccccc2C(F)(F)F)CC1 [Ia-104] | 2
8 | N#Cc1ccccc1C(=O)N1CC[C@H](C(=O)Nc2cccc(-c3ccccc3F)c2)C1 [Ia-63] | 0.33
9 | N#Cc1ccccc1C(=O)N1CCC(C(=O)Nc2cccc(-c3ccccn3)c2)CC1 [Ia-41] | 0.31
10 | O=C(Nc1ccc(OC(F)F)cc1)C1CCN(C(=O)Cn2c(-c3ccccc3)noc2=O)CC1 [Ia-19] | 0.29
11 | N#Cc1ccccc1C(=O)N1CCC(C(=O)Nc2cccc(Oc3ccccc3)c2)CC1 [Ia-47] | 0.38
12 | N#Cc1ccccc1C(=O)N1CCC(C(=O)Nc2cccc(Oc3ccccc3F)c2)CC1 [Ia-52] | 0.28
13 | O=C(Nc1ccn(-c2ccccc2F)n1)[C@H]1CCN(C(=O)c2ccccc2C(F)(F)F)C1 [Ia-106] | 1.5
14 | N#Cc1ccccc1C(=O)N1CCC(c2cc(-c3ccc(Cl)c(Cl)c3)n[nH]2)CC1 [Ia-94] | 0.3
15 | CC(C)n1ccc2cc(NC(=O)C3CCN(C(=O)c4ccccc4C(F)(F)F)CC3)ccc21 [Ia-108] | 0.48
16 | N#Cc1ccccc1C(=O)N1CCC(C(=O)Nc2ccn(-c3ccccc3F)n2)CC1 [Ia-34] | 0.59
17 | O=C(Cn1cc(Cl)ccc1=O)N1CCC(c2cc3cc(-c4ccccn4)ccc3[nH]2)CC1 [Ia-29] | 0.97
18 | CC(C)n1cccc1C(=O)N1CCC(C(=O)Nc2cccc(-c3ccccc3F)c2)CC1 [Ia-116] | 1.43
19 | N#Cc1ccc(F)cc1C(=O)N1CCC(C(=O)Nc2cccc(-c3ncccn3)c2)CC1 [Ia-71] | 0.37
20 | CC(C)c1ccccc1C(=O)N1CCC(C(=O)Nc2ccc(OC(F)F)cc2)CC1 [Ia-62] | 1.77
21 | Cc1[nH]c(C2CCN(C(=O)c3ccccc3C#N)CC2)nc1-c1ccccc1 [Ia-88] | 0.35
22 | O=C(Cn1cc(Cl)ccc1=O)N1CCC(c2cc3cc(OC(F)F)ccc3[nH]2)CC1 [Ia-28] | 0.96

Stronger by IC50, values ahead:

Row | IC50 [nM] | Structure (SMILES)
23 | 0.23 | CC(C)n1ccc2cc(NC(=O)C3CCN(C(=O)c4ccccc4C#N)CC3)ccc21 [Ia-57]
24 | 0.27 | N#Cc1ccccc1C(=O)N1CCC(C(=O)Nc2ccnc(-c3ccccc3F)c2)CC1 [Ia-40]
25 | 0.18 | N#Cc1ccc(F)cc1C(=O)N1CCC(C(=O)Nc2cccc(-c3ccccn3)c2)CC1 [Ia-70]
26 | 0.26 | N#Cc1ccccc1C(=O)N1CCC(C(=O)Nc2ccc(-c3ccccc3)cc2)CC1 [Ia-44]
27 | 0.2 | N#Cc1ccc(F)cc1C(=O)N1CCC(C(=O)Nc2cccc(-c3ccccc3F)c2)CC1 [Ia-68]
28 | 0.17 | N#Cc1ccccc1C(=O)N1CCC(c2nc(-c3cccc(C(F)(F)F)c3)c[nH]2)CC1 [Ia-87]
29 | 0.22 | CC(C)c1noc(=O)n1CC(=O)N1CCC(C(=O)Nc2cccc(-c3ccccc3F)c2)CC1 [Ia-22]
30 | 0.25 | N#Cc1ccccc1C(=O)N1CC[C@H](C(=O)Nc2ccn(-c3ccccc3F)n2)C1 [Ia-65]
31 | 0.26 | N#Cc1ccccc1C(=O)N1CCC(C(=O)Nc2cccc(-c3ccccc3F)c2)CC1 [Ia-35]
32 | 0.19 | N#Cc1ccccc1C(=O)N1CCC(c2nc3cc(-c4ccccc4F)ccc3[nH]2)CC1 [Ia-93]
33 | 0.12 | N#Cc1ccccc1C(=O)N1CCC(c2nc(-c3ccc(Cl)c(Cl)c3)c[nH]2)CC1 [Ia-85]
